# Measurements: patent US7078385B2, “Methods of inhibiting angiogenesis with fragments and homologs of troponin subunit I” (Boston Life Sciences, Inc., priority 1996, dated 2006)
# No end group written: not given here.
# B1: 1–120: recombinant rabbit TnI fragment, N′ and inhibitory (I′) region, aa 1–120 (protein, listed as Oryctolagus cuniculus)
# chain: GDEEKRNRAITARRQHLKSVMLQIAATELEKEEGRREAEKQNYLAEHCPPLSLPGSMAEVQELCKQLHAKIDAAEEEKYDMEIKVQKSSKELEDMNQKLFDLRGKFKRPPLRRVRMSADA
# B2: Troponin I: troponin subunit I, inhibitory polypeptide of the troponin complex; human fast twitch sequence SEQ ID NO:2 (protein, listed as Homo sapiens)
# chain: MGDEEKRNRAITARRQHLKSVMLQIAATELEKEESRREAEKQNYLAEHCPPLHIPGSMSEVQELCKQLHAKIDAAEEEKYDMEVRVQKTSKELEDMNQKLFDLRGKFKRPPLRRVRMSADAMLKALLGSKHKVCMDLRANLKQVKKEDTEKERDLRDVGDWRKNIEEKSGMEGRKKMFESES
# B3: 96–181: recombinant rabbit TnI fragment, carboxy terminus (C′) and I′ region, aa 96–181 (protein, listed as Oryctolagus cuniculus)
# chain: NQKLFDLRGKFKRPPLRRVRMSADAMLKALLGSKHKVCMDLRANLKQVKKEDTEKERDLRDVGDWRKNIEEKSGMEGRKKMFESES
# B4: platelet factor IV: previously described angiogenesis inhibitor (Taylor et al. 1982) (protein, UniProt P02776 32-101, looked up)
# Platelet factor 4: EAEEDGDLQCLCVKTTSQVRPRHITSLEVIKAGPHCPTAQLIATLKNGRKICLDLQAPLYKKIIKKLLES
# B5: 1–94: recombinant rabbit TnI fragment, amino-terminal (N′) region, aa 1–94 (protein, listed as Oryctolagus cuniculus)
# chain: GDEEKRNRAITARRQHLKSVMLQIAATELEKEEGRREAEKQNYLAEHCPPLSLPGSMAEVQELCKQLHAKIDAAEEEKYDMEIKVQKSSKELED
# Experiments:
# [1] = test system: bFGF-stimulated capillary EC; assay: Inhibition of bFGF-stimulated capillary EC proliferation by fragments of troponin I (Example 13, Table 2); type: cell-based, bovine; settings: for IC50: read-out: Approx. IC50
# Description: On day one, 5,000 bovine capillary endothelial cells in DMEM/10% CS/1% GPS are plated onto each well of a 96-well pregelatinized tissue culture plate. On day two, the cell media is changed to DMEM, 2% CS, 1% GPS, 0.5% BSA (complete medium), supplemented with 10 μl of 1 mg/ml “cold” thymidine per 50 ml of medium. On day three, test samples in complete medium are added in duplicate. Additionally, […] (bFGF) is added to each well except for the appropriate controls, to a final concentration of 0.2 ng/well. On day four, 5 μl of 1:13 diluted ^3H-Thymidine stock is added to each well and the plate is incubated for 5–6 hours. Following incubation, the medium is aspirated, and the remainder is rinsed once with PBS, then twice for 5 minutes each with methanol followed by two rinses each for 10 minutes with 5% TCA. The cells are then rinsed with water three times, dried to the plate, and 100 μl of 0.3 N NaOH is added to each well. The contents of the well are then transferred to the scintillation counter vials and 3 mls of Ecolume added to each vial. Samples are then counted on the scintillation counter.
# Recombinant peptides corresponding to fragments of rabbit (rb) TnI (SEQ ID NO:10) (FIG. 12) were tested for ability to inhibit bFGF-stimulated capillary EC as described above in Section 6, Examples 2 and 8. The rbTnI fragments (SEQ ID NOS:11–15) were prepared according to Jha et al., 1996, Biochemistry 35(34):11026–11035.
# [2] = test system: embryonic neovascularization of the chick chorioallantoic membrane; settings: cited from earlier work; for Lowest reported dose effective as combination in the CAM assay: combined with hydrocortisone (60 μg)
# [3] = test system: bovine capillary endothelial cells (BCE), bFGF-stimulated; assay: bFGF-stimulated capillary endothelial cell proliferation, colorimetric acid phosphatase assay (Example 3); type: cell-based
# Description: A quick and sensitive screen for inhibition of EC proliferation in response to treatment with a troponin subunit, homolog, or derivative of the invention involves incubating the cells in the presence of varying concentrations of the inhibitor and determining the number of endothelial cells in culture based on the colorimetric determination of cellular acid phosphatase activity, described by Connolly, et al., 1986, J. Anal. Biochem. 152:136–140.
# The effect of troponin on the proliferation of capillary endothelial cells (EC) was measured in an assay which measures the ability of this protein to interfere with stimulation of endothelial cell proliferation by a known angiogenesis factor (bFGF).
# Capillary endothelial cells and Balb/c 3T3 cells were separately plated (2×10^3/0.2 ml) onto gelatin-coated 96-well tissue culture dishes on day 1. On day 2, cells were refed with Dulbecco's modified Eagle's medium (Gibco) with 5% calf serum (Hyclone) (DMEM/5) and bFGF (10 ng/ml) (FGF Co.) and increasing concentrations of one or more troponin subunits. […] Wells containing phosphate buffered saline (PBS) (Gibco) alone and PBS+bFGF were included as controls. On day 5, media was removed and cells were washed with PBS and lysed in 100 μl of buffer containing 0.1 M sodium acetate (pH 5.5), 0.1% Triton X-100™ and 100 mM p-nitrophenyl phosphate (Sigma 104 phosphatase substrate). After incubation for 2 hours at 37° C., the reaction was stopped with the addition of 10 μl of 1 N NAOH. Color development was determined at 405 nm using a rapid microplate reader (Bio-Tek).
# Percent inhibition was determined by comparing the cell number of wells exposed to stimulus with those exposed to stimulus and troponin subunits.
molecule,measurement,setting,value
"122–181: recombinant rabbit TnI fragment, C′ region, aa 122–181 (LKALLGSKHKVCMDLRANLKQVKKEDTEKERDLRDVGDWRKNIEEKSGMEGRKKMFESES; listed as Oryctolagus cuniculus)",Approx. IC50 μg/well,[1],>0.3 μg/well
same,% I (Percent Inhibition) of EC proliferation,[1]; 0.01 μg/well,−1%
same,% I (Percent Inhibition) of EC proliferation,[1]; 0.025 μg/well,−6%
same,% I (Percent Inhibition) of EC proliferation,[1]; 0.1 μg/well,20%
same,% I (Percent Inhibition) of EC proliferation,[1]; 0.3 μg/well,23%
same,IC50,[1],> 200 nM
B-cyclodextrin tetradecasulfate,Lowest reported dose effective as combination in the CAM assay,[2],14 µg
CMDLRANL [134–141],Approx. IC50 μg/well,[1],150 μg/well
DAMLKALL [120–127],Approx. IC50 μg/well,[1],>>50 μg/well
DLRANLKQ [136–143],Approx. IC50 μg/well,[1],>>50 μg/well
DLRGKFKRPPLRRVRMSADA [102–121],Approx. IC50 μg/well,[1],>>20 μg/well
EDMNQKLFDLRGKFKRPPLR [94–113],Approx. IC50 μg/well,[1],>>20 μg/well
GSKHKVCM [128–135],Approx. IC50 μg/well,[1],150 μg/well
KALLGSKH [124–131],Approx. IC50 μg/well,[1],>>50 μg/well
KFKRPPLRRVRMSADAMLKA [102–125],Approx. IC50 μg/well,[1],>>20 μg/well
KHKVCMDL [130–137],Approx. IC50 μg/well,[1],50 μg/well
KLFDLRGKFKRPPLRRV [98–114],Approx. IC50 μg/well,[1],>>40 μg/well
KVCMDLRA [132–139],Approx. IC50 μg/well,[1],75 μg/well
LLGSKHKV [126–133],Approx. IC50 μg/well,[1],>>50 μg/well
MLKALLGS [122–129],Approx. IC50 μg/well,[1],>>50 μg/well
PPLRRVRMSADAMLKALLGS [110–129],Approx. IC50 μg/well,[1],>>20 μg/well
QKLFDLRGKFKRPPLRRVRM [98–117],Approx. IC50 μg/well,[1],>>20 μg/well
RMSADAML [116–123],Approx. IC50 μg/well,[1],>>50 μg/well
RVRMSADAMLKALLGSKHKV [114–133],Approx. IC50 μg/well,[1],>>20 μg/well
SADAMLKA [118–125],Approx. IC50 μg/well,[1],>>50 μg/well
SADAMLKALLGSKHKVCMDL [118–137],Approx. IC50 μg/well,[1],40 μg/well
"Troponin C: troponin subunit C, calcium binding polypeptide of the troponin complex; human fast twitch sequence SEQ ID NO:1",IC50,[3],278 nM
same,Percent inhibition of BCE proliferation,[3]; 280 nM,54%
same,Percent inhibition of BCE proliferation,[3]; 1.4 μM,86%
same,Percent inhibition of BCE proliferation,[3]; 2.8 μM,83%
same,Percent inhibition of BCE proliferation,[3]; 5.6 μM (20 μg/well),100%
"Troponin T: troponin subunit T, tropomyosin binding polypeptide of the troponin complex; SEQ ID NO:3",IC50,[3],2140 nM
same,Percent inhibition of BCE proliferation,[3]; 1.6 μM,23%
same,Percent inhibition of BCE proliferation,[3]; 3.3 μM,62%
same,Inhibition of bFGF-stimulated EC proliferation (in words),[3]; 1 and 5 μg/well,not
heparin,Lowest reported dose effective as combination in the CAM assay,[2],50 µg
protamine,Reported dose of angiogenesis inhibitor tested alone in the CAM assay,[2],50 µg
B1,Approx. IC50 μg/well,[1],>>0.3 μg/well
same,% I (Percent Inhibition) of EC proliferation,[1]; 0.01 μg/well,6%
same,% I (Percent Inhibition) of EC proliferation,[1]; 0.025 μg/well,0%
same,% I (Percent Inhibition) of EC proliferation,[1]; 0.1 μg/well,12%
same,% I (Percent Inhibition) of EC proliferation,[1]; 0.3 μg/well,17%
same,IC50,[1],> 100 nM
B2,IC50,[3],1140 nM
same,Percent inhibition of BCE proliferation,[3]; 240 nM,33%
same,Percent inhibition of BCE proliferation,"[3]; 1.2 μM (5 μg/well), 1.2 µM",46%
same,Percent inhibition of BCE proliferation,"[3]; 1.2 μM (5 μg/well), listed as full-length TnI, 1.2 µM",approximately 46%
same,Inhibition of bFGF-stimulated BCE proliferation (in words),[3]; 10 μg/well,inhibition was not observed
B3,% I (Percent Inhibition) of EC proliferation,[1]; 0.01 μg/well,25%
same,% I (Percent Inhibition) of EC proliferation,[1]; 0.025 μg/well,28%
same,% I (Percent Inhibition) of EC proliferation,[1]; 0.1 μg/well,54%
same,% I (Percent Inhibition) of EC proliferation,[1]; 0.3 μg/well,48%
B4,Reported dose of angiogenesis inhibitor tested alone in the CAM assay,[2],10 µg
B5,Approx. IC50 μg/well,[1],>0.3 μg/well
same,% I (Percent Inhibition) of EC proliferation,[1]; 0.01 μg/well,−12%
same,% I (Percent Inhibition) of EC proliferation,[1]; 0.025 μg/well,6%
same,% I (Percent Inhibition) of EC proliferation,[1]; 0.1 μg/well,31%
same,% I (Percent Inhibition) of EC proliferation,[1]; 0.3 μg/well,28%
same,IC50,[1],> 100 nM
